Numbering of substitutions follows the chain as printed.
Key:
RhOpn5 [1] = molecular target: T1, RhOpn5 (Rimicaris hybisae, UniProt Z9SF72QZI5); assay: absorption spectroscopy and HPLC of retinal in purified pigment; assay type: biochemical; settings: covalent (Schiff base, Lys296); photoproduct under yellow light (>480 nm); 0 °C
T1 construct: 178 C-terminal residues truncated, C-terminal Rho1D4 tag (ETSQVAPA), human-codon optimized, HEK293T; transcriptome reads SRA SRP339896
T1 sequence (Z9SF72QZI5 1-407): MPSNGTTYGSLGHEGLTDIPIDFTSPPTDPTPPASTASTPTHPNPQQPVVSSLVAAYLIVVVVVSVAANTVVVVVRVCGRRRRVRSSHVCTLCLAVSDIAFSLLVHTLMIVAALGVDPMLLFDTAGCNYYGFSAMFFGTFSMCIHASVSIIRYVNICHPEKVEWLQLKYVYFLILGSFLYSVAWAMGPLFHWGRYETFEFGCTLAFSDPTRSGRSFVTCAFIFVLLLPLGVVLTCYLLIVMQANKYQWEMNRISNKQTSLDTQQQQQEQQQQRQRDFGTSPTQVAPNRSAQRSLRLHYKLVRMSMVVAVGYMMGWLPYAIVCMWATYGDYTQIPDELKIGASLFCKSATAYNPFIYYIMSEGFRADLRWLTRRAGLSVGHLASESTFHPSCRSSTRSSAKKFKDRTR

RhPeropsin [2] = molecular target: T2, RhPeropsin (Rimicaris hybisae, UniProt Z9VFR8UU34); assay: as above; assay type: biochemical; settings: covalent (Schiff base, Lys296); dark state; photoisomerized under yellow light (>500 nm); 0 °C
T2 construct: C-terminal Rho1D4 tag (ETSQVAPA), human-codon optimized, expressed in HEK293T, no truncation stated; transcriptome reads SRA SRP339896
T2 sequence (Z9VFR8UU34 1-341): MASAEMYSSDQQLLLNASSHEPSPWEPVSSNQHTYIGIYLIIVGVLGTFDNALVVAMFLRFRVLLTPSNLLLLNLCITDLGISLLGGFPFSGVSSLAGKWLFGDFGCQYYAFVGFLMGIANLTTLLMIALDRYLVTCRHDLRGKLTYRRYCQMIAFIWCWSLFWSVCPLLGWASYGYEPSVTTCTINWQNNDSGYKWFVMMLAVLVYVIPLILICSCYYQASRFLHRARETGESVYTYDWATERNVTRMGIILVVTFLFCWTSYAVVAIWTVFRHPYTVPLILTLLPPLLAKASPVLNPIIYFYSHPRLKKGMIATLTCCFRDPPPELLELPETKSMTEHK

RhOpn5 [3] = molecular target: T3, RhOpn5 (Rimicaris hybisae, UniProt Z9SF72QZI5); assay: UV-visible absorption spectroscopy of purified pigment; assay type: binding; settings: covalent (Schiff base, Lys296); pH 8.0 and 6.5; 0 °C; mutation in bovine rhodopsin numbering
T3 construct: 178 C-terminal residues truncated, C-terminal Rho1D4 tag (ETSQVAPA), human-codon optimized, HEK293T; transcriptome reads SRA SRP339896
T3 sequence (Z9SF72QZI5 1-407 E336Q): T1 sequence (Z9SF72QZI5 1-407) with E336Q

RhPeropsin [4] = molecular target: T2, RhPeropsin; assay: HPLC of retinal isomers after irradiation; assay type: biochemical; settings: covalent (Schiff base, Lys296); photoproduct under yellow light (>500 nm); 0 °C
RhOpn5 [5] = molecular target: T1, RhOpn5; assay: absorption spectroscopy and HPLC of retinal in purified pigment; assay type: binding; settings: covalent (Schiff base, Lys296); dark state; 0 °C
RhOpn5 [6] = molecular target: T4, RhOpn5 (Rimicaris hybisae, UniProt Z9SF72QZI5, D98N, form not given); assay: UV-visible absorption spectroscopy of purified pigment; assay type: binding; settings: covalent (Schiff base, Lys296); pH 8.0 and 6.5; 0 °C; mutation in bovine rhodopsin numbering; counterion mutant
T4 construct: 178 C-terminal residues truncated, C-terminal Rho1D4 tag (ETSQVAPA), human-codon optimized, HEK293T; transcriptome reads SRA SRP339896
T4 sequence (Z9SF72QZI5 1-407 D98N): T1 sequence (Z9SF72QZI5 1-407) with D98N

RhOpn5 [7] = molecular target: T5, RhOpn5 (Rimicaris hybisae, UniProt Z9SF72QZI5, E196Q, form not given); assay: as above; assay type: binding; settings: covalent (Schiff base, Lys296); pH 8.0 and 6.5; 0 °C; mutation in bovine rhodopsin numbering
T5 construct: 178 C-terminal residues truncated, C-terminal Rho1D4 tag (ETSQVAPA), human-codon optimized, HEK293T; transcriptome reads SRA SRP339896
T5 sequence (Z9SF72QZI5 1-407 E196Q): T1 sequence (Z9SF72QZI5 1-407) with E196Q

RhOpn5 [8] = molecular target: T6, RhOpn5 (Rimicaris hybisae, UniProt Z9SF72QZI5, E199Q, form not given); assay: as above; assay type: binding; settings: covalent (Schiff base, Lys296); pH 8.0 and 6.5; 0 °C; mutation in bovine rhodopsin numbering
T6 construct: 178 C-terminal residues truncated, C-terminal Rho1D4 tag (ETSQVAPA), human-codon optimized, HEK293T; transcriptome reads SRA SRP339896
T6 sequence (Z9SF72QZI5 1-407 E199Q): T1 sequence (Z9SF72QZI5 1-407) with E199Q

SMILES	absorption spectroscopy and HPLC of retinal in purified pigment (RhOpn5 [1])	absorption spectroscopy and HPLC of retinal in purified pigment (RhPeropsin [2])	UV-visible absorption spectroscopy of purified pigment (RhOpn5 [3])	HPLC of retinal isomers after irradiation (RhPeropsin [4])	absorption spectroscopy and HPLC of retinal in purified pigment (RhOpn5 [5])	UV-visible absorption spectroscopy of purified pigment (RhOpn5 [6])	UV-visible absorption spectroscopy of purified pigment (RhOpn5 [7])	UV-visible absorption spectroscopy of purified pigment (RhOpn5 [8])
CC1=C(/C=C/C(C)=C/C=C/C(C)=C/C=O)C(C)(C)CCC1 [all-trans-retinal]	accompanied by the conversion from 11-cis- to all-trans-retinal	RhPeropsin exclusively binds all-trans-retinal in the dark and produces 11-cis-retinal from all-trans-retinal	–	–	–	–	–	–
CC1=C(/C=C/C(C)=C/C=C\C(C)=C\C=O)C(C)(C)CCC1 [11-cis-retinal]	–	–	the E179Q, E182Q, and E286Q mutants did not show pH-dependent spectral changes	RhPeropsin converts all-trans-retinal to 11-cis-retinal upon visible light absorption	RhOpn5 forms a blue light–sensitive pigment binding 11-cis-retinal in the resting state	the D83N mutant showed a significant pH-dependent change, with a small peak in the visible	the E179Q, E182Q, and E286Q mutants did not show pH-dependent spectral changes	the E179Q, E182Q, and E286Q mutants did not show pH-dependent spectral changes
